# Literature values as cited in article PMC4387274, “A phase 1 dose escalation study of BI 831266, an inhibitor of Aurora kinase B, in patients with advanced solid tumors” (Investigational New Drugs, 2014).
# Assays:
# [1] = system: solid malignancies
# [2] = system: acute myeloid leukemia; design: method as in PMID 23605952; settings: compared with low-dose cytosine arabinoside control arm
# [3] = 121 patients with solid malignancies
Structure (SMILES),Safety in ongoing phase 1 study ([1]; 105 mg in Schedule A),"Objective responses [1, 3]","Patients achieving SD [1, 3]",Objective clinical response rate [2]
CC(C)NC(=O)[C@H]1CCC[C@H]1Nc1nc(Nc2ccc(C(=O)N(C)C3CCN(C)CC3)cc2)ncc1C(F)(F)F [BI 811283],no significant safety issues,no objective responses,a third of the patients,–
CCN(CCCOc1ccc2c(Nc3cc(CC(=O)Nc4cccc(F)c4)n[nH]3)ncnc2c1)CCOP(=O)(O)O [barasertib],–,–,–,superior objective clinical response rate
